Experimental data published in patent US7635788B2, “Alpha-amino acid derivatives with antiinflammatory activity” (Italfarmaco SpA, priority 2004, dated 2009).

Experiments:
[1] = system: human hepatoma cell line Hep-G2; test: Cytotoxicity towards tumour cells in vitro (Cell Titer 96 formazane colorimetric assay); assay type: cell-based; conditions: 48 h, percentage inhibition of the formation of formazane relative to the control
Experimental: The cytotoxicity of some compounds described in the preceding Examples was evaluated in vitro on human hepatoma cell line Hep-G2, by means of a commercial colorimetric method (Cell Titer 96® Aque ous One Solution Cell Proliferation Assay—Promega); the method determines the number of viable cells on the basis of their capacity to metabolise a tetrazolium salt producing formazane. The quantity of formazane produced is proportional to the number of viable cells.
The Hep-G2 cells are distributed 96 well microplates at a density of 4×10^4 cells/well (100 μl), in M199 medium containing 10% foetal bovine serum and supplements (complete medium).
After 24 hours' incubation (37° C., 5% CO2, 90% humidity), the cells are washed once and the medium is replenished with 200 μl of complete medium containing the substances to be tested at the final concentration of 10^−5, 10^−6 and 10^−7M. The test is performed in triplicate.
The plates are incubated for a further 48 h, at the end of which 100 μl of medium are removed and 20 μl/well of staining solution are added in accordance with the supplier's instructions. Optical density (λ=490 nm) is read after 1 hour's incubation at 37° C. using a plate reader (Victor2—Wallac Perkin Elmer).

[2] = system: TNFα production by peripheral blood mononucleocytes stimulated with LPS; test: Inhibition of TNFα production by human monocytes stimulated with LPS; assay type: cell-based; conditions: LPS 10 ng/ml, 24 hours, ELISA
Experimental: The compounds were dissolved in DMSO at a final concentration of 10 mM.
The solutions for the assay were prepared by diluting the mother solutions in RPMI 1640 with the addition of 1% FCS and 0.01% DMSO and were filtered with 0.2 μm filters.
The peripheral blood mononucleocytes were obtained from blood from healthy donors by separation in a Ficoll-Hypaque gradient [C. G. Figdor, et al. Blood, 1982, 60: 46-53]. The cells were sown in 96-well plates, at a concentration of approx. 500,000 cells per well, suspended in RPMI 1640 containing 1% FCS and were incubated at 37° C. in the presence of different concentrations (from 10^−6 to 10^−11M) of the compounds to be investigated. After 1 hour, LPS was added (at a final concentration of 10 ng/ml; obtained from E. coli 055:B5) and the plates were incubated at 37° C. for a further 24 hours. At the end of this period, the supernatants were collected and used for the determination of TNFα content by means of ELISA (DuoSet ELISA kit; R&D Systems, Minneapolis, Minn., USA).
The concentration of TNFα was calculated using a calibration curve and the IC50 values (the concentration which brings about 50% inhibition of the production of the cytokine) were calculated from the curve obtained by plotting the percentage inhibition values for each individual concentration of the compound under investigation.

Row | IC50 ([2]; Monocyte) [nM] | IC50 [2] [nM] | Compound | Cytotoxicity at 10^−5 M [1] [%] | Cytotoxicity at 10^−6 M [1] [%]
1 | 51.8 |  | CC(=O)N[C@H](Cc1ccc2ccccc2c1)C(=O)Nc1ccc(C(=O)NO)cc1 [Example 2b, 4-(2(R)-Acetylamino-3-naphthalen-2-yl-propionylamino)-N-hydroxy-benzamide] | 48.3 | 10.6
2 | 55.9 |  | CC(=O)N[C@H](C(=O)Nc1ccc(C(=O)NO)cc1)C1Cc2ccccc2C1 [Example 2c, 4-(2(S)-Acetylamino-2-indan-2-yl-acetylamino)-N-hydroxy-benzamide] | 78.3 | 28.5
3 | 4.4 |  | CC(=O)N[C@@H](Cc1ccc2ccccc2c1)C(=O)Nc1ccc(C(=O)NO)cc1 [Example 2d, 4-(2(S)-Acetylamino-3-naphthalen-2-yl-propionylamino)-N-hydroxy-benzamide] | 56.2 | 9.6
4 | 12.5 |  | CC(=O)N[C@@H](Cc1ccccc1)C(=O)Nc1ccc(C(=O)NO)cc1 [Example 2e, 4-(2(S)-Acetylamino-3-phenyl-propionylamino)-N-hydroxy-benzamide] | 17.1 | 13.3
5 | 11.3 |  | O=C(NO)c1ccc(NC(=O)[C@H](Cc2ccccc2)NC(=O)c2ccccc2)cc1 [Example 2h, 4-(2(S)-Benzoylamino-3-phenyl-propionylamino)-N-hydroxy-benzamide] | 77.4 | 31.2
6 | 13.3 |  | CC(=O)N[C@@H](Cc1ccc(O)cc1)C(=O)Nc1ccc(C(=O)NO)cc1 [Example 2i, 4-[2(S)-Acetylamino-3-(4-hydroxy-phenyl)-propionylamino]-N-hydroxy-benzamide] | 12.2 | 15.7
7 | 4.6 |  | CC(=O)N[C@@H](Cc1ccc(C(F)(F)F)cc1)C(=O)Nc1ccc(C(=O)NO)cc1 [Example 2j, 4-[2(S)-Acetylamino-3-(4-trifluoromethyl-phenyl)-propionylamino]-N-hydroxy-benzamide] | 39.3 | 15.8
8 | 148 |  | O=C(NO)c1ccc(NC(=O)[C@H](Cc2ccc(O)cc2)NC(=O)c2ccccc2)cc1 [Example 2k, 4-[2(S)-Benzoylamino-3-(4-hydroxy-phenyl)-propionylamino]-N-hydroxy-benzamide] | 54.4 | 27.7
9 |  | 8.6 | O=C(NO)c1ccc(NC(=O)[C@H](Cc2ccccc2)NC(=O)c2ccc3ccccc3c2)cc1 [Example 2x, N-[1(S)-(4-hydroxycarbamoyl-phenylcarbamoyl)-2-phenyl-ethyl]-amide of naphthalene-2-carboxylic acid] | 77.3 | 15.3

The next lines start with the molecule.

Row | Compound | IC50 ([2]; Monocyte) [nM] | IC50 [2] [nM] | Cytotoxicity at 10^−5 M [1] [%] | Cytotoxicity at 10^−6 M [1] [%]
10 | O=C(NO)c1ccc(NC(=O)[C@@H](Cc2ccc3ccccc3c2)NC(=O)c2ccccc2)cc1 [Example 1a, 4-(2(R)-Benzoylamino-3-naphthalen-2-yl-propionylamino)-N-hydroxy-benzamide] | 3 |  | 75.2 | 22.6
11 | O=C(NO)c1ccc(NC(=O)[C@H](Cc2ccc(-c3ccccc3)cc2)NC(=O)c2ccccc2)cc1 [Example 2f, 4-(2(S)-Benzoylamino-3-biphenyl-4-yl-propionylamino)-N-hydroxy-benzamide] | 72.1 |  | 81.6 | 22.7
12 | O=C(NO)c1ccc(NC(=O)[C@H](Cc2ccc3ccccc3c2)NC(=O)c2ccccc2)cc1 [Example 2g, 4-(2(S)-Benzoylamino-3-naphthalen-2-yl-propionylamino)-N-hydroxy-benzamide] | 6.1 |  | 76.5 | 43.2
13 | Nc1ccc(C(=O)N[C@H](Cc2ccc3ccccc3c2)C(=O)Nc2ccc(C(=O)NO)cc2)cc1 [Example 2l, 4-Amino-N-[1(R)-(4-hydroxycarbamoyl-phenylcarbamoyl)-2-naphthalen-2-yl-ethyl]-benzamide] | 29.6 |  | 61.9 | 14.4
14 | Nc1ccc(C(=O)N[C@@H](Cc2ccc3ccccc3c2)C(=O)Nc2ccc(C(=O)NO)cc2)cc1 [Example 2m, 4-Amino-N-[1(S)-(4-hydroxycarbamoyl-phenylcarbamoyl)-2-naphthalen-2-yl-ethyl]-benzamide] | 26.7 |  | 72.4 | 24.5
15 | O=C(NO)c1ccc(NC(=O)[C@@H](Cc2ccc3ccccc3c2)NC(=O)c2cncc(Br)c2)cc1 [Example 2n, 5-Bromo-N-[1(R)-(4-hydroxycarbamoyl-phenylcarbamoyl)-2-naphthalen-2-yl-ethyl]-nicotinamide] | 6.8 |  | 68.2 | 15.9
16 | O=C(NO)c1ccc(NC(=O)[C@H](Cc2ccc(C(F)(F)F)cc2)NC(=O)c2cncc(Br)c2)cc1 [Example 2o, 5-Bromo-N-[1(S)-(4-hydroxycarbamoyl-phenylcarbamoyl)-2-(4-trifluoromethyl-phenyl)-ethyl]-nicotinamide] | 200 |  | 72.4 | 34.8
17 | O=C(NO)c1ccc(NC(=O)[C@H](Cc2ccc(-c3ccccc3)cc2)NC(=O)c2cncc(Br)c2)cc1 [Example 2p, 5-Bromo-N-[1(S)-(4-hydroxycarbamoyl-phenylcarbamoyl)-2-biphenyl-4-yl-ethyl]-nicotinamide] | 42 |  | 61.7 | 10.5
18 | O=C(NO)c1ccc(NC(=O)[C@H](Cc2ccc3ccccc3c2)NC(=O)c2cncc(Br)c2)cc1 [Example 2q, 5-Bromo-N-[1(S)-(4-hydroxycarbamoyl-phenylcarbamoyl)-2-naphthalen-2-yl-ethyl]-nicotinamide] | 22.9 |  | 53.9 | 11.7
19 | O=C(NO)c1ccc(NC(=O)[C@@H](Cc2ccc3ccccc3c2)NC(=O)c2ccc3c(c2)OCO3)cc1 [Example 2r, N-[1(R)-(4-hydroxycarbamoyl-phenylcarbamoyl)-2-naphthalen-2-yl-ethyl]-amide of benzo[1,3]dioxole-5-carboxylic acid] |  | 1.7 | 72.5 | 16.6
20 | O=C(NO)c1ccc(NC(=O)[C@H](Cc2ccc(O)cc2)NC(=O)c2ccc3c(c2)OCO3)cc1 [Example 2s, N-[1(S)-(4-hydroxycarbamoyl-phenylcarbamoyl)-2-(4-hydroxy-phenyl)-ethyl]-amide of benzo[1,3]dioxole-5-carboxylic acid] |  | 1000 |  | 
21 | O=C(NO)c1ccc(NC(=O)[C@H](Cc2ccc3ccccc3c2)NC(=O)c2ccc3c(c2)OCO3)cc1 [Example 2t, N-[1(S)-(4-hydroxycarbamoyl-phenylcarbamoyl)-2-naphthalen-2-yl-ethyl]-amide of benzo[1,3]dioxole-5-carboxylic acid] |  | 4.8 | 79.3 | 48.5
22 | O=C(NO)c1ccc(NC(=O)[C@H](Cc2cccc(F)c2)NC(=O)c2ccc3c(c2)OCO3)cc1 [Example 2u, N-[1(S)-(4-hydroxycarbamoyl-phenylcarbamoyl)-2-(3-fluoro-phenyl)-ethyl]-amide of benzo[1,3]dioxole-5-carboxylic acid] |  | 6.8 | 62.9 | 12.9
23 | O=C(NO)c1ccc(NC(=O)[C@@H](Cc2ccc3ccccc3c2)NC(=O)c2ccc3ccccc3c2)cc1 [Example 2v, N-[1(R)-(4-hydroxycarbamoyl-phenylcarbamoyl)-2-naphthalen-2-yl-ethyl]-amide of naphthalene-2-carboxylic acid] |  | 16.8 | 69.4 | 11.8
24 | O=C(NO)c1ccc(NC(=O)[C@H](Cc2ccc(C(F)(F)F)cc2)NC(=O)c2ccc3ccccc3c2)cc1 [Example 2w, N-[1(S)-(4-hydroxycarbamoyl-phenylcarbamoyl)-2-(4-trifluoromethyl-phenyl)-ethyl]-amide of naphthalene-2-carboxylic acid] |  | 23.7 | 65.7 | 25.3
